Values of other authors, collected in patent US20120283223A1, “CEREBRAL NERVE CELL NEOGENESIS AGENT” (priority 2010, published 2012).

System: cerebral nerve cells
Conditions: in 3 to 4 weeks; Non-Patent Literature 1

In the case of `CNCCC(Oc1ccc(C(F)(F)F)cc1)c1ccccc1` (stereo not shown) [fluoxetine], the “number of cerebral nerve cells” value is listed as “increases”.
